Test results published in publication PMC4325971, “Sex-Differences in Renal Expression of Selected Transporters and Transcription Factors in Lean and Obese Zucker Spontaneously Hypertensive Fatty Rats” (Journal of Diabetes Research, 2015).

How the values were obtained:
Assay in all cases: inhibition of [3H]cGMP uptake in OAT2-HEK293 cells
Assay type in all cases: cell-based
[1] = target: T1, human OAT2 (organic anion transporter 2) (Homo sapiens, UniProt Q9Y694)
T1 construct: gene SLC22A7; full-length human OAT2 stably transfected in HEK293 cells (PortaCellTec Biosciences)
T1 sequence (Q9Y694 1-548): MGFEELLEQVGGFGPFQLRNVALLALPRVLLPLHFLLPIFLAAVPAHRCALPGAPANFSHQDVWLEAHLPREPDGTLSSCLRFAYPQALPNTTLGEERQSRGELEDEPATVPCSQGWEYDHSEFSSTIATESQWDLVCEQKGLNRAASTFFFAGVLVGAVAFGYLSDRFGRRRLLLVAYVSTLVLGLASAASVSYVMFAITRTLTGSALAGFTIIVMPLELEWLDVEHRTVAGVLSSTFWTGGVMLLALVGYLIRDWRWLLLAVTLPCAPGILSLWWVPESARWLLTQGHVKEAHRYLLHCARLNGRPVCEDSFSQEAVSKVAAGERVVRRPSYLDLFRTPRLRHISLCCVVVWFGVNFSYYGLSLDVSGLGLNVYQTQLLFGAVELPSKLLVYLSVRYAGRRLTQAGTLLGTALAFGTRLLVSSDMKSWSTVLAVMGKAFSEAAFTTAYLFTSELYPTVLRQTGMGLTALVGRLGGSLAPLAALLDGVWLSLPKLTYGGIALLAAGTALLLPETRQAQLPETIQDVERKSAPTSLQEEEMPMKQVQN

[2] = target: T1, human OAT2 (organic anion transporter 2); details: 500 μM inhibitor, 10 μM cGMP, 5 min, 37°C, pH 7.4
[3] = target: T1, human OAT2 (organic anion transporter 2); details: read-out: % inhibition at 500 μM

Compound	% inhibition at 500 μM [2]	also measured
CCCCNc1cc(C(=O)O)cc(S(N)(=O)=O)c1Oc1ccccc1 [bumetanide]		IC50 [1]: 130 ± 21.8 µM
CCOC(=O)[C@H](CCc1ccccc1)N[C@@H](C)C(=O)N1CCC[C@H]1C(=O)O [enalapril]	weak inhibition of OAT2-mediated cGMP uptake by high concentrations of sitagliptin and enalapril	
COc1cc(CC(=O)O)ccc1O [homovanillic acid]	significantly decreased in the presence of the dopamine metabolite homovanillate	
COc1ccc2c(c1)c(CC(=O)O)c(C)n2C(=O)c1ccc(Cl)cc1 [indomethacin]	OAT2 transport function was abolished by indomethacin	
N[C@@H](CC(=O)N1CCn2c(nnc2C(F)(F)F)C1)Cc1cc(F)c(F)cc1F [sitagliptin]		inhibition at 500 µM [3]: ~25%
